Consider 13 molecules from patent US10030020B2, “Spirocycle compounds and methods of making and using same” (Abide Therapeutics, Inc., priority 2016, dated 2018).

Common to all, as to format: biochemical
The target of one test is FAAH (Mus musculus (Mouse), UniProt O08914). Kind of test: In vitro competitive activity-based protein profiling (mouse brain membrane fraction or cell lysates), FAAH band. The settings on record: mouse proteome; for inhibition at 1 µM: read-out: FAAH % Inh 1 μM (mouse); for IC50: competitive ABPP. The protocol: (§1) In Vitro Competitive Activity-Based Protein Profiling.
FAAH, sequence (O08914 whole entry): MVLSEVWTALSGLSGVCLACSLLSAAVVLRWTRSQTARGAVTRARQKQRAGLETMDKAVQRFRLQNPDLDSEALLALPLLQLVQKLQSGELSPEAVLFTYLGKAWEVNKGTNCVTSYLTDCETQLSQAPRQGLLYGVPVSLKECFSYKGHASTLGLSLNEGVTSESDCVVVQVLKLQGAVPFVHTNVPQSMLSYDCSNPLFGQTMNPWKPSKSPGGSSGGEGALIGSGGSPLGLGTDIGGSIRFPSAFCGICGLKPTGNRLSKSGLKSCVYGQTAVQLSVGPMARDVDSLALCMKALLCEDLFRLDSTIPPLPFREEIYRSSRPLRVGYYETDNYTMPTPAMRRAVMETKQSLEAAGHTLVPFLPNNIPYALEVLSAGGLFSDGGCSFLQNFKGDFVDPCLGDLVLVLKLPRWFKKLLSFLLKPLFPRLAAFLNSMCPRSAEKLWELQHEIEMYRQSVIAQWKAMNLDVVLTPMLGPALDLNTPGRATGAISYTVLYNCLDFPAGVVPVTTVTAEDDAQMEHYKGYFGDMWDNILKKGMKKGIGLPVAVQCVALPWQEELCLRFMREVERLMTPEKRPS
(§2) Proteomes (mouse brain membrane fraction or cell lysates) (50 μL, 1.0 mg/mL total protein concentration) were preincubated with varying concentrations of inhibitors at 37° C. After 30 min, FP—Rh (1.0 μL, 50 μM in DMSO) was added and the mixture was incubated for another 30 min at 37° C. Reactions were quenched with SDS loading buffer (50 μL-4×) and run on SDS-PAGE. Following gel imaging, serine hydrolase activity was determined by measuring fluorescent intensity of gel bands corresponding to MAGL, ABHD6 and FAAH using ImageJ 1.43u software.

The target in a further test is ABHD6 (Mus musculus (Mouse), UniProt Q8R2Y0). Kind of test: In vitro competitive activity-based protein profiling (mouse brain membrane fraction or cell lysates), ABHD6 band. To be noted: mouse proteome; for inhibition at 1 µM: read-out: ABHD6 % Inh 1 μM (mouse); for IC50: competitive ABPP. The protocol:
as §1, §2

The next test has as its target MAGL (Mus musculus (Mouse), UniProt O35678). Kind of test: In vitro competitive activity-based protein profiling (mouse brain membrane fraction or cell lysates), MAGL band. To be noted: mouse proteome; for inhibition at 1 µM: read-out: MAGL % Inh 1 μM (mouse); for IC50: competitive ABPP. On the procedure: as §1
Proteomes (mouse brain membrane fraction or cell lysates) (50 μL, 1.0 mg/mL total protein concentration) were preincubated with varying concentrations of inhibitors at 37° C. After 30 min, FP—Rh (1.0 μL, 50 μM in DMSO) was added and the mixture was incubated for another 30 min at 37° C. Reactions were quenched with SDS loading buffer (50 μL-4×) and run on SDS-PAGE.

The IC50 is the concentration that inhibits the measured activity by half.

MAGL, sequence (O35678 whole entry): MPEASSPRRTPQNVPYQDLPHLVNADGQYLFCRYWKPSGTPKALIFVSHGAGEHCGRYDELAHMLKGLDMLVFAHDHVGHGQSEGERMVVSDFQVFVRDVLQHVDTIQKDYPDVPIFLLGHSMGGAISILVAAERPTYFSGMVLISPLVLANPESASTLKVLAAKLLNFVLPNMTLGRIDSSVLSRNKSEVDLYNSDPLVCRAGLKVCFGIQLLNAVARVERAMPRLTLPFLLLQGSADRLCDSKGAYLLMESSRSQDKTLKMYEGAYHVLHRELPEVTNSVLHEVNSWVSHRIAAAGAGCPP
ABHD6, sequence (Q8R2Y0 whole entry): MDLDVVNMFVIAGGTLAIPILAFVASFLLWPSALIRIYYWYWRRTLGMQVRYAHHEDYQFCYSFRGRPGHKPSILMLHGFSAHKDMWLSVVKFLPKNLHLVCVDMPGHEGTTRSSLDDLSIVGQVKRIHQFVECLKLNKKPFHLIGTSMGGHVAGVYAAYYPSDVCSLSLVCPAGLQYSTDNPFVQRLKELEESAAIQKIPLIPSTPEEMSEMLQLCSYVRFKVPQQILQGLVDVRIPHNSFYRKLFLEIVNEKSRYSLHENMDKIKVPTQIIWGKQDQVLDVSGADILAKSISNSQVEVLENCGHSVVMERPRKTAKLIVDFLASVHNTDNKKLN

Regarding `O=C(OC(C(F)(F)F)C(F)(F)F)N1CCC2(CCCN2Cc2cccc(N3CCC(F)CC3)c2Cl)CC1` [Example 110, 1,1,1,3,3,3-Hexafluoropropan-2-yl 1-(2-chloro-3-(4-fluoropiperidin-1-yl)benzyl)-1,8-diazaspiro[4.5]decane-8-carboxylate], the values for the inhibition at 1 µM on FAAH, on ABHD6 and on MAGL were below 25%, below 25% and above 75%, respectively. Besides, the figures for the IC50 at FAAH, on ABHD6 and at MAGL were above 1000 nM, above 1000 nM and below 100 nM, respectively.
In the case of `O=C(OC(C(F)(F)F)C(F)(F)F)N1CCC2(CCCN2Cc2cccc(N3CCC(F)(F)CC3)c2Cl)CC1` [Example 111, 1,1,1,3,3,3-Hexafluoropropan-2-yl 1-(2-chloro-3-(4,4-difluoropiperidin-1-yl)benzyl)-1,8-diazaspiro[4.5]decane-8-carboxylate], the inhibition at 1 µM at FAAH was below 25%; at ABHD6, below 25%; at MAGL, above 75%. Moreover, the IC50 at FAAH is above 1000 nM; at ABHD6, above 1000 nM; on MAGL, below 100 nM.
With `O=C(OC(C(F)(F)F)C(F)(F)F)N1CCC2(CCCN2Cc2cccc(N3CC4COCC4C3)c2Cl)CC1` (stereo not drawn) [Example 112, 1,1,1,3,3,3-Hexafluoropropan-2-yl 1-(2-chloro-3-(tetrahydro-1H-furo[3,4-c]pyrrol-5(3H)-yl)benzyl)-1,8-diazaspiro[4.5]decane-8-carboxylate], the inhibition at 1 µM on FAAH is below 25%; at ABHD6 it was below 25%; at MAGL, above 75%. Moreover, the IC50 was above 1000 nM on FAAH, above 1000 nM at ABHD6 and below 100 nM at MAGL.
As for `CS(=O)(=O)N1CCN(c2cccc(CN3CCCC34CCN(C(=O)OC(C(F)(F)F)C(F)(F)F)CC4)c2Cl)CC1` [Example 113, 1,1,1,3,3,3-Hexafluoropropan-2-yl 1-(2-chloro-3-(4-(methylsulfonyl)piperazin-1-yl)benzyl)-1,8-diazaspiro[4.5]decane-8-carboxylate], the inhibition at 1 µM at FAAH was below 25%; at ABHD6 it was below 25%; on MAGL, above 75%. Moreover, the IC50 is above 1000 nM at FAAH, above 1000 nM at ABHD6 and below 100 nM on MAGL.
Take `CC(=O)N1CCN(c2cccc(CN3CCCC34CCN(C(=O)OC(C(F)(F)F)C(F)(F)F)CC4)c2Cl)CC1` [Example 114, 1,1,1,3,3,3-Hexafluoropropan-2-yl 1-(3-(4-acetylpiperazin-1-yl)-2-chlorobenzyl)-1,8-diazaspiro[4.5]decane-8-carboxylate]: the inhibition at 1 µM at FAAH is below 25%; at ABHD6 it was 25 to 75%; on MAGL, above 75%. In addition, the IC50 at FAAH is above 1000 nM; on ABHD6, above 1000 nM; on MAGL, below 100 nM.
Consider `O=C(OC(C(F)(F)F)C(F)(F)F)N1CCC2(CCCN2Cc2cccc(N3CCN(C4CC4)CC3)c2Cl)CC1` [Example 115, 1,1,1,3,3,3-Hexafluoropropan-2-yl 1-(2-chloro-3-(4-cyclopropylpiperazin-1-yl)benzyl)-1,8-diazaspiro[4.5]decane-8-carboxylate], for which the inhibition at 1 µM on FAAH was below 25%; on ABHD6, below 25%; on MAGL, above 75%. For the same molecule, the IC50 at FAAH and at ABHD6 was above 1000 nM throughout.
Consider `CCN1CCN(c2cccc(CN3CCCC34CCN(C(=O)OC(C(F)(F)F)C(F)(F)F)CC4)c2Cl)CC1` [Example 116, 1,1,1,3,3,3-Hexafluoropropan-2-yl 1-(2-chloro-3-(4-ethylpiperazin-1-yl)benzyl)-1,8-diazaspiro[4.5]decane-8-carboxylate], for which the inhibition at 1 µM at FAAH is below 25%; at ABHD6 it was below 25%; on MAGL it was above 75%. In addition, the IC50 on FAAH is above 1000 nM; at ABHD6, above 1000 nM; on MAGL it was below 100 nM.
As to `O=C(OC(C(F)(F)F)C(F)(F)F)N1CCC2(CCCN2Cc2cccc(N3CCC4(CCOCC4)C3)c2Cl)CC1` [Example 117, 1,1,1,3,3,3-Hexafluoropropan-2-yl 1-(2-chloro-3-(8-oxa-2-azaspiro[4.5]decan-2-yl)benzyl)-1,8-diazaspiro[4.5]decane-8-carboxylate], the inhibition at 1 µM at FAAH was below 25%; at ABHD6, below 25%; at MAGL it was above 75%. Further, the IC50 on FAAH and on ABHD6 was above 1000 nM throughout.
`O=C(OC(C(F)(F)F)C(F)(F)F)N1CCC2(CCCN2Cc2ccc3c(c2)OCCO3)CC1` [Example 126, 1,1,1,3,3,3-Hexafluoropropan-2-yl 1-(2,3-dihydro-1,4-benzodioxin-6-ylmethyl)-1,8-diazaspiro[4.5]decane-8-carboxylate]: the inhibition at 1 µM at FAAH was below 25%; at ABHD6, 25 to 75%; on MAGL, above 75%. Further, the IC50 on FAAH is above 1000 nM; on ABHD6, above 1000 nM; on MAGL, below 100 nM.
For `O=C(OC(C(F)(F)F)C(F)(F)F)N1CCC2(CCCN2Cc2ccc(N3CCOCC3)c(Cl)c2)CC1` [Example 127, 1,1,1,3,3,3-Hexafluoropropan-2-yl 1-(3-chloro-4-morpholinobenzyl)-1,8-diazaspiro[4.5]decane-8-carboxylate], the inhibition at 1 µM at FAAH is below 25%; at ABHD6 it was 25 to 75%; on MAGL, above 75%. Moreover, the IC50 on FAAH and on ABHD6 was above 1000 nM each time.
`O=C(OC(C(F)(F)F)C(F)(F)F)N1CCC2(CCCN2Cc2ccc(Cl)c(N3CCOCC3)c2)CC1` [Example 131, 1,1,1,3,3,3-Hexafluoropropan-2-yl 1-(4-chloro-3-morpholinobenzyl)-1,8-diazaspiro[4.5]decane-8-carboxylate]: the inhibition at 1 µM was below 25% at FAAH, below 25% at ABHD6 and above 75% on MAGL. The IC50 at FAAH was above 1000 nM; on ABHD6 it was above 1000 nM; on MAGL it was below 100 nM.
On to `Cc1cc(CN2CCC3(CCN(C(=O)OC(C(F)(F)F)C(F)(F)F)CC3)C2)ccc1Cl` [Example 135, 1,1,1,3,3,3-Hexafluoropropan-2-yl 2-(4-chloro-3-methylbenzyl)-2,8-diazaspiro[4.5]decane-8-carboxylate], for which the inhibition at 1 µM on FAAH was below 25%; at ABHD6, at least 75%; at MAGL, above 75%. In addition, the IC50 on FAAH was above 1000 nM; at ABHD6 it was 100 to 1000 nM; on MAGL, below 100 nM.
In the case of `Cc1ccc(CN2CCC3(CCN(C(=O)OC(C(F)(F)F)C(F)(F)F)CC3)C2)cc1Cl` [Example 136, 1,1,1,3,3,3-Hexafluoropropan-2-yl 2-(3-chloro-4-methylbenzyl)-2,8-diazaspiro[4.5]decane-8-carboxylate], the inhibition at 1 µM was below 25% on FAAH, at least 75% at ABHD6 and above 75% on MAGL. Further, the IC50 at FAAH is above 1000 nM; on ABHD6 it was 100 to 1000 nM; on MAGL it was 100 to 1000 nM.
